The values that follow come from patent publication US10100036B2, “Lappaconitine aza-cinnamic acid derivatives with anti-tumor activities and a method of preparing the same” (priority 2016, dated 2018).

A value given as a limit tells only on which side of the number the result lay.

Assay [1] relates to human gastric adenocarcinoma cell line (SGC-7901). Description: tumor cell proliferation inhibition test, MTT method. Particulars: 48 hours treatment. In kind it is cell-based. On the procedure:
(§1) The compounds of the present invention were subjected to tumor cell proliferation inhibition test, and the conventional MTT method was used as the test method.
(§2) Cell lines selected are human prostate cancer cell line (PC-3), human gastric adenocarcinoma cell line (SGC-7901), and human lung cancer cell (A-549). The culture medium was DMEM+15% NBS+double antibody.
(§3) Preparation of the sample solutions: compounds were dissolved in DMSO (Merck), and PBS (−) was add to 100 μL of the solution or homogeneous suspension. The solution or suspension was diluted with DMSO and PBS(−) to final concentrations of 0.1, 1, 10, 20, 40, 60, 80, 100 μmol/L.
(§4) Anti-tumor agent 5-fluorouracil (5-FU) was used as control and was prepared in the same way as the compounds.
(§5) Living cells mitochondria in the dehydrogenase can reduce yellow MTT to water-insoluble blue-violet product MT (MTT formazan), deposited in the cells. The amount of production is proportional to the number of living cells. […] DMSO can dissolve blue violet crystals, and the color depth is proportional to the amount contained, so the absorbance measured by the microplate reader can reflect the cell viability.
(§6) The exponential phase cells were digested and counted and seeded in 96-well plates at a density of 2×10^4/mL at 100 μl per well. After 24 hours of incubation, the cells to be tested were treated with 0.1, 1, 10, 20, 40, 60, 80, 100 μmol/L of the compounds. Each experimental group had 5 wells in each concentration, and the culture medium containing 0.4% DMSO was used as control. After 48 hours, the supernatant was discarded, and 100 μl of MTT ((2-(4,5-dimethyl-2-thiazolyl)-3,5-diphenyl-2H-tetrazole hydrobromide) (1 mg/mL) was added to each well. After another 4 hours, the supernatant was discarded, and 100 μL of DMSO was added to each well. After mixing, the absorbance was measured at 570 nm using a microplate reader. An IC50 calculation software was used to determine the half inhibitory concentration (IC50).
(In general: Tetrazolium assays rely on reduction of a dye to a coloured formazan, in cell work by metabolically active cells.)

Assay [2] deals with human prostate cancer cell line (PC-3). Described as above. In kind it is cell-based. Conditions: 48 hours treatment. On the procedure: as §1, §2, §3, §4, §5, §6
Assay [3] relates to human lung cancer cell (A-549). The description is as above. In kind it is cell-based. Conditions: 48 hours treatment, A549. On the procedure:
as §1, §2, §3, §4, §5, §6

Assay [4] deals with PC-3, SGC-7901 and A-549 tumor cells. Nature of the assay: tumor cell proliferation inhibition test, summary over the three cell lines. Conditions: in the 3 cell lines tested. In kind it is cell-based, human. On the procedure:
as §1, §2, §6

Turning to `CCN1C[C@]2(OC(=O)c3ccccc3NC(=O)/C=C/c3ccncc3)CC[C@H](OC)[C@]34C1[C@@H](C[C@H]23)[C@@]1(O)C[C@H](OC)C[C@H]2C[C@@H]4[C@]1(O)[C@H]2OC` [Compound 1], the IC50 (as a rule, the midpoint of a concentration-inhibition curve) came out at 22.5 ± 1.35 µM in assay [1], 18.1 ± 0.64 µM in assay [2] and 9.12 ± 2.53 µM in assay [3].
In the same order, the values of `CCN1C[C@]2(OC(=O)c3ccccc3NC(=O)/C=C/c3cccnc3)CC[C@H](OC)[C@]34C1[C@@H](C[C@H]23)[C@@]1(O)C[C@H](OC)C[C@H]2C[C@@H]4[C@]1(O)[C@H]2OC` [Compound 2] are 26.3 ± 0.37 µM, 26.4 ± 0.36 µM and 13.4 ± 2.78 µM.
In the case of `CCN1C[C@]2(OC(=O)c3ccccc3NC(=O)/C=C/c3ccccn3)CC[C@H](OC)[C@]34C1[C@@H](C[C@H]23)[C@@]1(O)C[C@H](OC)C[C@H]2C[C@@H]4[C@]1(O)[C@H]2OC` [Compound 3], the IC50 in assay [1] was determined as 13.7 ± 1.28 µM; in assay [2], 15.2 ± 1.18 µM.
Take `CCN1C[C@]2(OC(=O)c3ccccc3NC(=O)/C=C(\C)c3cccnc3)CC[C@H](OC)[C@]34C1[C@@H](C[C@H]23)[C@@]1(O)C[C@H](OC)C[C@H]2C[C@@H]4[C@]1(O)[C@H]2OC` [Compound 4]: the IC50 in assay [1] was above 100 µM; in assay [2] it was above 100 µM; in assay [3], 67.31 ± 0.44 µM.
Turning to `O=c1[nH]cc(F)c(=O)[nH]1` [Compound 5-FU, 5-fluorouracil, reference compound], the half-inhibitory concentration (IC50) in assay [1] was determined as 22.4 ± 1.67 µM; in assay [2], 8.17 ± 0.39 µM; in assay [3], 15.6 ± 3.54 µM.
For `CCN1C[C@]2(OC(=O)c3ccccc3NC(=O)/C=C/c3cncc(C)c3)CC[C@H](OC)[C@]34C1[C@@H](C[C@H]23)[C@@]1(O)C[C@H](OC)C[C@H]2C[C@@H]4[C@]1(O)[C@H]2OC` [Compound 5], in assay [4], the “activities compared with 5-fluorouracil” value was “equal or better activities than 5-fluorouracil”. The IC50 worked out at 29.6 ± 3.54 µM in assay [1], 11.3 ± 0.64 µM in assay [2] and 13.2 ± 0.39 µM in assay [3].
Regarding `CCN1C[C@]2(OC(=O)c3ccccc3NC(=O)/C=C/c3cnccc3C)CC[C@H](OC)[C@]34C1[C@@H](C[C@H]23)[C@@]1(O)C[C@H](OC)C[C@H]2C[C@@H]4[C@]1(O)[C@H]2OC` [Compound 6], the IC50 in assay [1] was 37.8 ± 0.42 µM; in assay [2] it was 33.5 ± 1.17 µM; in assay [3], 42.65 ± 0.38 µM.
For `CCN1C[C@]2(OC(=O)c3ccccc3NC(=O)/C=C/c3ccc(C)nc3)CC[C@H](OC)[C@]34C1[C@@H](C[C@H]23)[C@@]1(O)C[C@H](OC)C[C@H]2C[C@@H]4[C@]1(O)[C@H]2OC` [Compound 7], the IC50 is 39.3 ± 1.74 µM in assay [1], 43.3 ± 1.42 µM in assay [2] and 47.31 ± 0.44 µM in assay [3].
For the molecule `CCc1cncc(/C=C/C(=O)Nc2ccccc2C(=O)O[C@@]23CC[C@H](OC)[C@]45C([C@@H](C[C@H]24)[C@@]2(O)C[C@H](OC)C[C@H]4C[C@@H]5[C@]2(O)[C@H]4OC)N(CC)C3)c1` [Compound 8], the values for the IC50 in assay [1], in assay [2] and in assay [3] were 33.5 ± 1.18 µM, 38.1 ± 0.44 µM and 25.1 ± 2.23 µM, respectively.
The matching figures for `CCN1C[C@]2(OC(=O)c3ccccc3NC(=O)/C=C(\C)c3ccncc3)CC[C@H](OC)[C@]34C1[C@@H](C[C@H]23)[C@@]1(O)C[C@H](OC)C[C@H]2C[C@@H]4[C@]1(O)[C@H]2OC` [Compound 9]: above 100 µM, 73.37 ± 0.69 µM and above 100 µM.
In the same order, the values of `CCN1C[C@]2(OC(=O)c3ccccc3NC(=O)/C(C)=C/c3ccncc3)CC[C@H](OC)[C@]34C1[C@@H](C[C@H]23)[C@@]1(O)C[C@H](OC)C[C@H]2C[C@@H]4[C@]1(O)[C@H]2OC` [Compound 10] are above 100 µM, above 100 µM and above 100 µM.
On to `CCN1C[C@]2(OC(=O)c3ccccc3NC(=O)/C=C/c3ccnc(C)c3)CC[C@H](OC)[C@]34C1[C@@H](C[C@H]23)[C@@]1(O)C[C@H](OC)C[C@H]2C[C@@H]4[C@]1(O)[C@H]2OC` [Compound 11], for which the “activities compared with 5-fluorouracil” value in assay [4] is reported as “equal or better activities than 5-fluorouracil”. Also, the IC50 in assay [1] amounted to 10.2 ± 0.45 µM; in assay [2], 10.2 ± 0.78 µM; in assay [3], 18.6 ± 0.43 µM.
The matching figures for `CCc1cc(/C=C/C(=O)Nc2ccccc2C(=O)O[C@@]23CC[C@H](OC)[C@]45C([C@@H](C[C@H]24)[C@@]2(O)C[C@H](OC)C[C@H]4C[C@@H]5[C@]2(O)[C@H]4OC)N(CC)C3)ccn1` [Compound 12]: “equal or better activities than 5-fluorouracil”, 25.05 ± 0.16 µM, 13.86 ± 0.1 µM and 21.7 ± 0.45 µM.
`CCN1C[C@]2(OC(=O)c3ccccc3NC(=O)/C=C/c3cc(C)nc(C)c3)CC[C@H](OC)[C@]34C1[C@@H](C[C@H]23)[C@@]1(O)C[C@H](OC)C[C@H]2C[C@@H]4[C@]1(O)[C@H]2OC` [Compound 13]: the IC50 worked out at 18 ± 0.58 µM in assay [1], 16.6 ± 1.87 µM in assay [2] and 32.3 ± 1.34 µM in assay [3].
In the same order, the values of `CCN1C[C@]2(OC(=O)c3ccccc3NC(=O)/C=C/c3cc(C)ccn3)CC[C@H](OC)[C@]34C1[C@@H](C[C@H]23)[C@@]1(O)C[C@H](OC)C[C@H]2C[C@@H]4[C@]1(O)[C@H]2OC` [Compound 14] are 87.02 ± 0.58 µM, 67.8 ± 1.3 µM and 41.3 ± 1.42 µM.
In the same order, the values of `CCc1ccnc(/C=C/C(=O)Nc2ccccc2C(=O)O[C@@]23CC[C@H](OC)[C@]45C([C@@H](C[C@H]24)[C@@]2(O)C[C@H](OC)C[C@H]4C[C@@H]5[C@]2(O)[C@H]4OC)N(CC)C3)c1` [Compound 15] are 21.8 ± 1.2 µM, 44.1 ± 2.73 µM and 47.3 ± 2.56 µM.
The matching figures for `CCN1C[C@]2(OC(=O)c3ccccc3NC(=O)/C=C/c3cc(C)cc(C)n3)CC[C@H](OC)[C@]34C1[C@@H](C[C@H]23)[C@@]1(O)C[C@H](OC)C[C@H]2C[C@@H]4[C@]1(O)[C@H]2OC` [Compound 16]: above 100 µM, 40.8 ± 2.55 µM and 69.3 ± 1.42 µM.
As for `CCN1C[C@]2(OC(=O)c3ccccc3NC(=O)/C=C/c3cc(C(C)C)ccn3)CC[C@H](OC)[C@]34C1[C@@H](C[C@H]23)[C@@]1(O)C[C@H](OC)C[C@H]2C[C@@H]4[C@]1(O)[C@H]2OC` [Compound 17], the IC50 in assay [1] is above 100 µM; in assay [2], 61.3 ± 1.24 µM; in assay [3], above 100 µM.
Take `CCN1C[C@]2(OC(=O)c3ccccc3NC(=O)/C(C)=C/c3cccc(C)n3)CC[C@H](OC)[C@]34C1[C@@H](C[C@H]23)[C@@]1(O)C[C@H](OC)C[C@H]2C[C@@H]4[C@]1(O)[C@H]2OC` [Compound 18]: the IC50 in assay [1], in assay [2] and in assay [3] was above 100 µM throughout.
In the case of `CCN1C[C@]2(OC(=O)c3ccccc3NC(=O)/C=C/c3cccc(C)n3)CC[C@H](OC)[C@]34C1[C@@H](C[C@H]23)[C@@]1(O)C[C@H](OC)C[C@H]2C[C@@H]4[C@]1(O)[C@H]2OC` [Compound 19], the IC50 in assay [1] was 95.1 ± 1.92 µM; in assay [2], above 100 µM; in assay [3], above 100 µM.
